Reference: patent publication US20220370416A1, “COMPOUNDS AND METHODS FOR TARGETED DEGRADATION OF KRAS” (Arvinas Operations, Inc., priority 2020, published 2022)

Tests used:
HiBit-KRAS^G12C [1] = target: T1, HiBit-KRAS^G12C (Homo sapiens, UniProt P01116, G12C); test: HiBit degradation assay in MiaPaCa-2 HiBit-KRas^G12C cells; assay type: cell-based; details: 24 hours
Summary of the method: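 DC50 and Dmax come from 4-parameter fits of DMSO-normalized HiBit luminescence after 24 hours' exposure at 37° C to 10 μM–20 nM compound in 0.1% or 0.5% DMSO. Cells: MiaPaCa-2 carrying one endogenously HiBit-tagged KRAS^G12C allele; concentrations causing ≥50% […] viability loss (alamar blue) excluded.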

HiBit-KRAS^G12C [2] = target: T1, HiBit-KRAS^G12C; test: HiBit degradation assay in SW1573 HiBit-KRas^G12C cells; assay type: cell-based; design: expressed in transfected cells; host or cells: SW1573 (clone E6), modified pcDNA3.1 vector, TK promoter; details: 24 hours
Summary of the method: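 HiBit-KRAS G12C degradation was measured after a 24 h compound exposure (titrated 10 μM–20 nM) in engineered SW1573 cells. Lytic HiBit luminescence, expressed relative to DMSO controls, yielded DC50 and Dmax from 4-parameter fits. Concentrations causing ≥50% loss in alamar blue viability were omitted as cytotoxic.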

[3] = MIA PaCa-2, MiaPaCa-2 HiBit-KRas^G12C cells, 0.5% DMSO, maximum degradation, read-out: KRas^G12C-HiBiT (MiaPaCa; 0.5% DMSO) DMax
[4] = read-out: KRas^G12C-HiBiT (MiaPaCa; 0.5% DMSO) IC50, MiaPaCa-2 HiBit-KRas^G12C cells, 0.5% DMSO
[5] = SW1573, SW1573 HiBit-KRas^G12C, 0.5% DMSO, read-out: KRas^G12C-HiBiT (SW1573; 0.5% DMSO) Dmax**
[6] = read-out: KRas^G12C-HiBiT (SW1573; 0.5% DMSO) IC50***, SW1573 HiBit-KRas^G12C, 0.5% DMSO
[7] = SW1573, SW1573 HiBit-KRas^G12C, 0.1% DMSO, read-out: KRas^G12C-HiBit (SW1573; 0.1% DMSO) Dmax**
[8] = SW1573 HiBit-KRas^G12C, 0.1% DMSO, read-out: KRas^G12C-HIBit (SW1573; 0.1% DMSO) DC50*

T1 sequence (P01116 1-186 isoform P01116-2 G12C limits assumed): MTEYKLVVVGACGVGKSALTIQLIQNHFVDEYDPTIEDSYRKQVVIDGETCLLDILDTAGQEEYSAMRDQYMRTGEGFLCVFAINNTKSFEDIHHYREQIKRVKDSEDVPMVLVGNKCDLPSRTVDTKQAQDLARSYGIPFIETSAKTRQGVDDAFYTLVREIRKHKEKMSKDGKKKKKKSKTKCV

Row | Structure (SMILES) | Dmax (HiBit-KRAS^G12C [1]; [3]) [%] | DC50 (HiBit-KRAS^G12C [1]; [4]) [nM] | Dmax (HiBit-KRAS^G12C [2]; [5]) [%] | DC50 (HiBit-KRAS^G12C [2]; [6]) [nM] | also measured
1 | C=CC(=O)N1CCN(c2nc(O[C@H](C)CN3CCC(COCC(=O)N[C@H](C(=O)N4C[C@H](O)C[C@H]4C(=O)N[C@@H](C)c4ccc(-c5scnc5C)cc4)C(C)(C)C)CC3)nc3c(F)c(-c4cc(O)cc5ccccc45)c(Cl)cc23)C[C@@H]1CC#N [Compound 152, (2S,4R)-1-[(2S)-2-[2-({1-[(2R)-2-({6-chloro-4-[(3S)-3-(cyanomethyl)-4-(prop-2-enoyl)piperazin-1-yl]-8-fluoro-7-(3-hydroxynaphthalen-1-yl)quinazolin-2-yl}oxy)propyl]piperidin-4-yl}methoxy)acetamido]-3,3-dimethylbutanoyl]-4-hydroxy-N-[(1S)-1-[4-(4-methyl-1,3-thiazol-5-yl)phenyl]ethyl]pyrrolidine-2-carboxamide] | 35 to 70 | 100 to 1000 | > 70 | 100 to 1000 | 
2 | C=CC(=O)N1CCN(c2nc(OCCN3CCC(CN(C)CC(=O)N[C@H](C(=O)N4C[C@H](O)C[C@H]4C(=O)N[C@@H](C)c4ccc(-c5scnc5C)cc4)C(C)(C)C)CC3)nc3c(F)c(-c4cc(O)cc5ccccc45)c(Cl)cc23)C[C@@H]1CC#N [Compound 148, (2S,4R)-1-[(2S)-2-{2-[({1-[2-({6-chloro-4-[(3S)-3-(cyanomethyl)-4-(prop-2-enoyl)piperazin-1-yl]-8-fluoro-7-(3-hydroxynaphthalen-1-yl)quinazolin-2-yl}oxy)ethyl]piperidin-4-yl}methyl)(methyl)amino]acetamido}-3,3-dimethylbutanoyl]-4-hydroxy-N-[(1S)-1-[4-(4-methyl-1,3-thiazol-5-yl)phenyl]ethyl]pyrrolidine-2-carboxamide] |  | 100 to 1000 |  | 100 to 1000 | Dmax (HiBit-KRAS^G12C [1]; MIA PaCa-2, read-out: KRas^G12C-HiBiT (MiaPaCa; 0.5% DMSO) DMax, MiaPaCa-2 HiBit-KRas^G12C cells, 0.5% DMSO, maximum degradation): 35 to 70%; Dmax (HiBit-KRAS^G12C [2]; SW1573, read-out: KRas^G12C-HiBiT (SW1573; 0.5% DMSO) Dmax**, SW1573 HiBit-KRas^G12C, 0.5% DMSO): 35 to 70%
3 | C=CC(=O)N1CCN(c2nc(O[C@H](C)CN3CCC(COCC(=O)N[C@H](C(=O)N4C[C@H](O)C[C@H]4C(=O)N[C@@H](C)c4ccc(-c5scnc5C)cc4)C(C)(C)C)CC3)nc3c2CCN(c2cc(O)cc4ccccc24)C3)C[C@@H]1CC#N [Compound 29, (2S,4R)-1-[(2S)-2-[2-({1-[(2R)-2-({4-[(3S)-3-(cyanomethyl)-4-(prop-2-enoyl)piperazin-1-yl]-7-(3-hydroxynaphthalen-1-yl)-5H,6H,7H,8H-pyrido[3,4-d]pyrimidin-2-yl}oxy)propyl]piperidin-4-yl}methoxy)acetamido]-3,3-dimethylbutanoyl]-4-hydroxy-N-[(1S)-1-[4-(4-methyl-1,3-thiazol-5-yl)phenyl]ethyl]pyrrolidine-2-carboxamide] | 35 to 70 |  | 35 to 70 |  | Dmax (HiBit-KRAS^G12C [1]; MIA PaCa-2, MiaPaCa-2 HiBit-KRas^G12C cells, 0.1% DMSO, maximum degradation, read-out: KRas^G12C-HiBiT (MiaPaCa; 0.1% DMSO) DMax): 35 to 70%; Dmax (HiBit-KRAS^G12C [2]; [7]): 35 to 70%; DC50 (HiBit-KRAS^G12C [2]; [8]): > 1000 nM
4 | C=CC(=O)N1CCN(c2nc(O[C@H](C)CN3CCC(OCCOCC(=O)N[C@H](C(=O)N4C[C@H](O)C[C@H]4C(=O)N[C@@H](C)c4ccc(-c5scnc5C)cc4)C(C)(C)C)CC3)nc3c(F)c(-c4cc(O)cc5ccccc45)c(Cl)cc23)C[C@H]1C [Compound 45, (2S,4R)-1-[(2S)-2-{2-[2-({1-[(2R)-2-{[6-chloro-8-fluoro-7-(3-hydroxynaphthalen-1-yl)-4-[(3R)-3-methyl-4-(prop-2-enoyl)piperazin-1-yl]quinazolin-2-yl]oxy}propyl]piperidin-4-yl}oxy)ethoxy]acetamido}-3,3-dimethylbutanoyl]-4-hydroxy-N-[(1S)-1-[4-(4-methyl-1,3-thiazol-5-yl)phenyl]ethyl]pyrrolidine-2-carboxamide] |  |  |  |  | DC50 (HiBit-KRAS^G12C [1]; read-out: KRas^G12C-HiBiT (MiaPaCa; 0.1% DMSO) IC50, MiaPaCa-2 HiBit-KRas^G12C cells, 0.1% DMSO): > 1000 nM; Dmax (HiBit-KRAS^G12C [2]; [7]): < 35%; DC50 (HiBit-KRAS^G12C [2]; [8]): 100 to 1000 nM
5 | C=CC(=O)N1CCN(c2nc(OCCN3CCC(COCC(=O)N[C@H](C(=O)N4C[C@H](O)C[C@H]4C(=O)N[C@@H](C)c4ccc(-c5scnc5C)cc4)C(C)(C)C)CC3)nc3c(F)c(-c4cc(O)cc5ccccc45)c(Cl)cc23)C[C@@H]1CC#N (atropisomer, axis not shown) [Compound 163, (2S,4R)-1-[(2S)-2-[2-({1-[2-({6-chloro-4-[(3S)-3-(cyanomethyl)-4-(prop-2-enoyl)piperazin-1-yl]-8-fluoro-7-(3-hydroxynaphthalen-1-yl)quinazolin-2-yl}oxy)ethyl]piperidin-4-yl}methoxy)acetamido]-3,3-dimethylbutanoyl]-4-hydroxy-N-[(1S)-1-[4-(4-methyl-1,3-thiazol-5-yl)phenyl]ethyl]pyrrolidine-2-carboxamide] |  |  |  |  | KRas^G12C-HiBiT (MiaPaCa; 0.5% DMSO) DMax (HiBit-KRAS^G12C [1]; MiaPaCa-2 HiBit-KRas^G12C cells, 0.5% DMSO, maximum degradation): A (A ≥ 70); KRas^G12C-HiBiT (SW1573; 0.5% DMSO) Dmax** (HiBit-KRAS^G12C [2]; SW1573 HiBit-KRas^G12C, 0.5% DMSO): A (A ≥ 70)

Further lines, with some results ahead:

Row | Dmax (HiBit-KRAS^G12C [1]; [3]) [%] | DC50 (HiBit-KRAS^G12C [1]; [4]) [nM] | Dmax (HiBit-KRAS^G12C [2]; [5]) [%] | DC50 (HiBit-KRAS^G12C [2]; [6]) [nM] | Structure (SMILES) | also measured
6 | < 35 | 100 to 1000 |  | > 1000 | C=CC(=O)N1CCN(c2nc(OCCN3CCC(COc4cc([C@@H](C(=O)N5C[C@H](O)C[C@H]5C(=O)N[C@@H](C)c5ccc(-c6scnc6C)cc5)C(C)C)on4)CC3)nc3c(F)c(-c4cc(O)cc5ccccc45)c(Cl)cc23)C[C@@H]1CC#N (atropisomer, axis not shown) [Compound 154, (2S,4R)-1-[(2S)-2-[3-({1-[2-({6-chloro-4-[(3S)-3-(cyanomethyl)-4-(prop-2-enoyl)piperazin-1-yl]-8-fluoro-7-(3-hydroxynaphthalen-1-yl)quinazolin-2-yl}oxy)ethyl]piperidin-4-yl}methoxy)-1,2-oxazol-5-yl]-3-methylbutanoyl]-4-hydroxy-N-[(1S)-1-[4-(4-methyl-1,3-thiazol-5-yl)phenyl]ethyl]pyrrolidine-2-carboxamide] | 
7 |  | > 1000 |  | > 1000 | C=C(F)C(=O)N1CCN(c2nc(OCCN3CCC4(CC3)CN(c3cc([C@@H](C(=O)N5C[C@H](O)C[C@H]5C(=O)N[C@@H](C)c5ccc(-c6scnc6C)cc5)C(C)C)on3)C4)nc3c(F)c(-c4cc(O)cc5ccccc45)c(Cl)cc23)C[C@@H]1CC#N (atropisomer, axis not shown) [Compound 113, (2S,4R)-1-[(2S)-2-(3-{7-[2-({6-chloro-4-[(3S)-3-(cyanomethyl)-4-(2-fluoroprop-2-enoyl)piperazin-1-yl]-8-fluoro-7-(3-hydroxynaphthalen-1-yl)quinazolin-2-yl}oxy)ethyl]-2,7-diazaspiro[3.5]nonan-2-yl}-1,2-oxazol-5-yl)-3-methylbutanoyl]-4-hydroxy-N-[(1S)-1-[4-(4-methyl-1,3-thiazol-5-yl)phenyl]ethyl]pyrrolidine-2-carboxamide] | 
8 | > 70 | 100 to 1000 | > 70 | < 100 | C=CC(=O)N1CCN(c2nc(OCCN3CCC(COc4cc([C@H](C(=O)N5C[C@H](O)C[C@H]5C(=O)N[C@@H](C)c5ccc(-c6ccnn6C)cc5)C(C)C)on4)CC3)nc3c(F)c(-c4cc(O)cc5ccccc45)c(Cl)cc23)C[C@@H]1CC#N (atropisomer, axis not shown) [Compound 138, (2S,4R)-1-[(2R)-2-[3-({1-[2-({6-chloro-4-[(3S)-3-(cyanomethyl)-4-(prop-2-enoyl)piperazin-1-yl]-8-fluoro-7-(3-hydroxynaphthalen-1-yl)quinazolin-2-yl}oxy)ethyl]-piperidin-4-yl}methoxy)-1,2-oxazol-5-yl]-3-methylbutanoyl]-4-hydroxy-N-[(1S)-1-[4-(1-methyl-1H-pyrazol-5-yl)phenyl]ethyl]pyrrolidine-2-carboxamide] | 
